In brackets after ≈: the same amount, converted by molar mass.
Columns and labels:
[1] = test system: peripheral blood mononuclear cells (PBMC); experiment: Cellular toxicity assay (MTS) on PBMC; type: cell-based, human; conditions: 24 hours incubation, MTS reagent; read-out: PBMC's TC50
Description: Compounds of the invention (see Table 6) were assayed for cellular toxicity as follows. Whole blood was drawn from a volunteer, and the red cells were separated from the buffy coat cells by centrifugation over ficoll-paque. The resulting peripheral blood mononuclear cells (PBMC) were collected from the interface and washed extensively with PBS by centrifugation to remove platelets and cellular debris. The cells were then plated in 96-well tissue culture plates at a density of 5×10^5 cells per mL at 200 μL per well. After an hour incubation, the candidate compounds were added at the appropriate concentrations diluted from DMSO stocks into assay buffer (RPMI medium supplemented with 10% FCS). The cells were incubated at 37° C., 100% humidity and 5% CO2 for 24 hours at which time MTS reagent was added per the manufacturer's (Promega) instructions. After 2-3 hours incubation the optical density of the wells was read on a spectrophotometer. […] The data are evaluated using equation 2 as described in Example 17, where bacterial cells are replaced by PBMC cells in the measurements. The data describes the toxicity of these compounds to a representative human cell population (PBMC's).

[2] = molecular target: N. gonorrhea RNase P (M1 RNA + C5 protein) (Neisseria gonorrhoeae, UniProt Q5F4W3); experiment: Time resolved fluorescence (TRF) RNase P inhibition assay; type: biochemical; conditions: 30 min enzyme reaction, ptGLN substrate; read-out: N. gonorrhoeae TRF IC50(μM) (Example 15)
Description: The ability of compounds of the invention to inhibit RNase P enzymes can be assessed by standard techniques. For example, the cleavage of ptRNA^Gln by the enzyme N. Gonorrhea RNase P, can be monitored in the presence and absence of a candidate compound as described in the Example 15. The progress of the RNase P-mediated cleavage reaction can be assessed by measuring the […] hybridized to the cleaved substrate.
Time Resolved Fluorescence RNase P Inhibition Assay
96-well Nunc MaxiSorp FluoroNunc plates were coated with 50 μl/well of 1 μg/ml of streptavidin in base buffer (150 mM KCl, 5 mM MgCl2, 50 mM Tris, pH 7.6) and incubated overnight. The plates were washed using TRF.96 protocol, and then blocked with 150 μl of a 1 mg/ml BSA solution in base buffer and incubated with shaking for sixty minutes. The plates were then washed twice with base buffer plus 0.01% Tween20. 50 μl of 40 nM T17-bt (biotinylated DNA oligonucleotide complementary to the RNaseP substrate leader sequence used to capture intact RNaseP substrate) was then added to all wells, and the plates were incubated with shaking for 1 hr.
A 0.4 nM solution of N. gonorrhea M1 RNA was made from a 1 μM stock solution. A 0.5 nM solution of N. gonorrhea C5 protein is made by diluting a 10 μM stock. ΔUL-ptGLN UTP-bt (10 μM stock) was diluted into PA buffer for a concentration of 40 nM.
Compounds were serially diluted in DMSO from 20 mM stocks to 6, 2, 0.6, 0.2, and 0.06 mM dilutions. These titrations were then diluted (2 μl to 100) in PA buffer, and 12.5 μl of each concentration was added in duplicate to a 96-well V-bottom polypropylene plate. The highest concentration was put in row G and the lowest in row B. Rows A & H received 12.5 μl of DMSO/PA buffer.
The enzyme reaction was initiated in the V-bottom polypropylene plates containing compound dilutions by adding 12.5 μl of the N. gonorrhea M1 solution to rows A-G. PA buffer was added to row H. 12.5 μl of the C5 solution was added similarly to the M1 solutions. 12.5 μl of the substrate solution was then added to all wells. The plates were incubated for 30 minutes at which time 12.5 μl of stop buffer was added to all wells. (Stop buffer: 500 μg/ml polyC/50 nM SA-Eu in 335 mM MgCl2 PA buffer).
The T17-biotin-coated plate was washed three times, and 37.5 μl of 75 mM MgCl2 PA buffer was added to each well. After 30 minutes incubation with the stop buffer, 12.5 μl from all of the enzyme reaction wells was transferred to the T17 plates. The plates were then incubated for 1.5 hr at room temperature with shaking. The plates were washed three times and 40 μl of Delfia enhancement solution (Wallac Oy) was added to all wells. The plates were then read on the Victor 2 plate reader.

[3] = test system: N. gonorrhoeae; experiment: Bacterial inhibition assay (growth, MTS readout); type: cell-based; conditions: CAMHB-3% LHB medium, 35° C., 5% CO2, 24 hours
Description: (§1) Compounds of the invention (see Table 5) were assayed for their ability to inhibit bacterial growth. Compounds were diluted from 10 mM DMSO stocks to 3 mM and 1 mM in DMSO. The compounds were further diluted from these stocks into saline for 200, 120, and 20 μM stocks. Control antibiotics were diluted similarly. Overnight cultures of bacteria were made in the following manner. N. gonorrhea was streaked onto a chocolate agar plate and incubated at 35° C./5% CO2. Rather than make an overnight culture of S. pyogenes, a loopful of S. pyogenes from a blood plate or a stock plate was used the following day for direct cell suspension.
(§2) On the following day bacteria were prepared by dilution into saline with O.D. […] readings taken to determine the concentration of the bacteria. CFUs (colony forming units) were determined using the formula: CFU/mL=OD625×(1.5×10^8 CFU/mL/OD McFarland std)×dilution. The four bacterial cultures were diluted initially to 5.5×10^7 CFU/mL. The bacteria were then further diluted into medium to 5.5×10^5 CFU/mL for S. pyogenes and 5.5×10^6 CFU/mL for N. gonorrhea. S. pyogenes and N. gonorrhea were grown in CAMHB-3% LHB medium. The bacteria were added one per plate at 200 μL per well. Compounds were added in 10 μL aliquots for final concentrations of 10, 3, and 1 μM in duplicate. Control antibiotics, penicillin for S. pyogenes and ciprofloxacin for N. gonorrhea, were added from 0.8 mg/ml to 0.003 mg/ml. Plates were incubated at 35° C. with O2 for 16-20 hours for S. pyogenes, and read at OD665 in a Victor2 plate reader. Plates were incubated at 35° C. with 5% CO2 for 24 hours for N. gonorrhea at which time 40 μL of MTS reagent is added per well and incubated for 1 hour in same incubator. The plates were read at OD490. Compounds were tested at 1 μM, 3 μM, and 10 μM concentrations. The results, which are expressed as a percentage of the control, were calculated using equation 2. In this equation, O.D. is optical density; (O.D. compounds+bacteria) is the optical density observed for bacteria grown in the presence of a compound of the invention; (O.D. blank) is the optical density in the absence of bacteria; and (O.D. bacteria) is the optical density observed for bacteria growing uninhibited. Other RNase P inhibitors may be tested similarly using any bacteria of interest. [formula]

[4] = molecular target: T1, N. gonorrhoeae RNase P holoenzyme (Neisseria gonorrhoeae, UniProt Q5F4W3); experiment: biochemical; conditions: 32P-labelled pGln substrate, room temperature; read-out: N. gonorrhoeae Gel assay IC50(μM) (Example 16)
T1 sequence (Q5F4W3 1-121): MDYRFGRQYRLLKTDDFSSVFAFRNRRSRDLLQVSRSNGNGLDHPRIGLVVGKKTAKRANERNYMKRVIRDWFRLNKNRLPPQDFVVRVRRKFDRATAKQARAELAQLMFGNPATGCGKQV
Description: RNase P Inhibition Polyacrylamide Gel Assay
The substrate, the precursor of tRNA^Gln, (pGln), from Synechocystis (Pascual and Vioque, 1999), was synthesized in vitro from the corresponding cDNA by T7 RNA polymerase in the presence of α^32P-GTP. Each control RNase P reaction of 10 μl contained 50 mM Tris-HCl (pH 7.8), 10 mM MgCl2, 100 mM NH4Cl, 1 mM dithiothreitol, and 0.4-1.0 pmol pGln substrate, radiolabeled to a specific activity of 1000-10,000 cpm/pmol. The reaction mixture, containing 0.1-1 nM holoenzyme, was incubated for 5-60 min at room temperature (18-24° C.), and the reaction was terminated by addition of an equal volume of 40 mM EDTA/8 M urea. The samples were electrophoresed in denaturing 8% polyacrylamide gels. The activity was quantified by exposure of the gel to a phosphorimaging screen. For test reactions that require the addition of compounds, the RNA subunits were pre-incubated with compound for 10 min at room temperature in the presence of buffer, followed by addition of the protein subunit. After a further 10 minutes of incubation, the radiolabeled substrate was added, and the reaction initiated. Products were analyzed as just described. The IC50 was the concentration of compound that was required to inhibit RNase P activity by 50%.

[5] = test system: S. pyogenes; experiment: Bacterial inhibition assay (growth, OD readout); type: cell-based; conditions: CAMHB-3% LHB medium, 35° C., 16-20 hours
Description: as §1, §2

`CC(=NNC(=N)N)c1cccc(NC(=O)[C@H](Cc2ccc(-c3ccccc3)cc2)NC(=O)c2cccc(I)c2)c1` [MES 10908, Guanylhydrazone of (S)-1-(3-iodobenzoyl)-N-(3-acetylphenyl)biphenyl-alaninamide] was tested, and the CC50 [1] was 5 µM, the IC50 [2] was 5 µM and the MIC [3] was greater than 100 µM. The IC50 [4] was 6 µM and the MIC [5] was 10 µM (≈ 6.45 µg/mL).

From US20050187409A1, “Inhibitors of RNase P proteins as antibacterial compounds” (priority 2003, published 2005)
